Source: ChEMBL document CHEMBL4011596, “Design, synthesis, and biological evaluation of a highly water-soluble psoralen-based photosensitizer” (Bioorg Med Chem, 2017)
Active and inactive are the calls of the source. The calls are words filed in the database; no cut-off is given here.

Legend:
BALB/3T3 [1] = assay: Photocytotoxicity against mouse BALB/3T3 cells assessed as cell death at 2.9 uM preincubated for 48 hrs followed by 3.3 J/cm2 UV light irradiation for 500 sec measured after 18 hrs by Alamar blue assay relative to control; assay type: functional
BALB/3T3 [2] = assay: Photocytotoxicity against mouse BALB/3T3 cells at >42 uM preincubated for 48 hrs followed by 3.3 J/cm2 UV light irradiation for 500 sec measured after 18 hrs by Alamar blue assay; assay type: functional, cell-based
[3] = Induction of singlet oxygen production in DMSO assessed as decrease in DPBF level by measuring quantum yield after irradiation with halogen light by spectroscopic analysis relative to control; set-up: scale not given: the % may be the effect or the level left

Row | SMILES | Activity (BALB/3T3 [1]) [%] | Activity (BALB/3T3 [2]) | Activity [3] [%]
1 | COc1c2occc2c(Cn2cc(CO[C@@H]3O[C@H](CO)[C@@H](O)[C@H](O)[C@H]3O)nn2)c2ccc(=O)oc12 | 15 | Active | 24
2 | COc1c2occc2c(Cn2cc(CO[C@@H]3O[C@H](CO)[C@H](O)[C@H](O)[C@H]3O)nn2)c2ccc(=O)oc12 |  | Active | 24
3 | O=c1ccc2cc3ccoc3cc2o1 |  | Active | 17
